Measured values as given in patent publication US8399459B2, “1,4 oxazines as BACE1 and/or BACE2 inhibitors” (Hoffmann-La Roche Inc., priority 2011, dated 2013).
pIC50: −log10 of the molar value.

How the values were obtained:
Format in all cases: in vitro ADME
[1] = target: T1, CYP2C9 (Homo sapiens, UniProt P11712); assay: CYP inhibition assay, human liver microsomes, diclofenac 4′hydroxylase; details: pooled human liver microsomes, read-out: CYP IC50 2C9
T1 construct: 0.2 mg/ml pooled human liver microsomes; from tissue; host or cells: pooled human liver microsomes
T1 sequence (P11712 whole entry): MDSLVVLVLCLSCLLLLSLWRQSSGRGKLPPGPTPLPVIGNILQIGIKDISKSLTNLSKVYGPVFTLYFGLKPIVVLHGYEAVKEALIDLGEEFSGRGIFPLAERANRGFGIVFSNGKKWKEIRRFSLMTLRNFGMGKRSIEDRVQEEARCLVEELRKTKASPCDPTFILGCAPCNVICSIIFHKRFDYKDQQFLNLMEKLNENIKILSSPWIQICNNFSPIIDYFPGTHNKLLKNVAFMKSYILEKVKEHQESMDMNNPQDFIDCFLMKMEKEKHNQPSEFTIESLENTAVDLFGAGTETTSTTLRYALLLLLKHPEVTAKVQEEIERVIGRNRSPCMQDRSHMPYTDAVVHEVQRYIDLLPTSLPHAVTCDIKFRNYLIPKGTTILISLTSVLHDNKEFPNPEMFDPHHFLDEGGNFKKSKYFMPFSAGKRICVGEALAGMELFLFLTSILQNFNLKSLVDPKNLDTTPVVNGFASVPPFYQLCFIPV
Description: (§1) Inhibition of cytochromes P450 (CYPs) 2C9, 2D6 and 3A4 was assessed using human liver microsomes and CYP-selective substrate metabolism reactions. 50 μl incubations were made up containing (finally) 0.2 mg/ml pooled human liver microsomes, 5 μM substrate (diclofenac for CYP2C9 [4′hydroxylase], dextromethorphan for CYP2D6 [O-demethylase] or midazolam for CYP3A4 [1′hydroxylase]), 0.25 μL DMSO containing test inhibitor and NADPH regenerating system. Test inhibitor concentrations of 50, 16.7, 5.6, 1.9, 0.6 and 0.2 μM were assessed in singlicate. Incubations were prewarmed to 37° C. for 10 minutes before initiation by addition of NADPH regenerating system. Incubations were quenched after 5 minutes (20 minutes for dextromethorphan) by addition of 50 μl cold acetonitrile containing 20 ng/ml 4-OH-diclofenac-13C6, 20 ng/mL dextrorphan-D3 and 20 ng/mL 1-OH-midazolam-D4. Quenched incubates were stored at −20° C. for at least 1 hour before centrifugation (20,000×g, 20 minutes). Supernatants were removed and diluted 1:1 with water prior to analysis using a RapidFire sample injector system and API4000 mass spectrometer. Peak areas for substrate, metabolite and stable-labelled metabolite standard were determined using MS/MS. The peak area ratios between the metabolite generated by the enzymatic reaction and the internal standard were used in subsequent calculations. The percentage of (DMSO) control activity was calculated for each incubate and IC50 values estimated by non-linear regression. Sulfaphenazole, quinidine or ketoconazole were tested in each CYP2C9, CYP2D6 or CYP3A4 inhibition experiment, respectively, to ensure assay sensitivity and reproducibility. (Validated assays for human cytochrome P450 activities, R. L. Walsky and R. S. Obach, Drug Metabolism and Disposition 32: 647-660, 2004. and S. Fowler and H. Zhang, The AAPS Journal, Vol. 10, No. 2, 410-424, 2008.)

[2] = target: T2, CYP3A4 (Homo sapiens, UniProt P08684); assay: CYP inhibition assay, human liver microsomes, midazolam 1′hydroxylase; details: pooled human liver microsomes, read-out: CYP IC50 3A4
T2 construct: 0.2 mg/ml pooled human liver microsomes; from tissue; host or cells: pooled human liver microsomes
T2 sequence (P08684 whole entry): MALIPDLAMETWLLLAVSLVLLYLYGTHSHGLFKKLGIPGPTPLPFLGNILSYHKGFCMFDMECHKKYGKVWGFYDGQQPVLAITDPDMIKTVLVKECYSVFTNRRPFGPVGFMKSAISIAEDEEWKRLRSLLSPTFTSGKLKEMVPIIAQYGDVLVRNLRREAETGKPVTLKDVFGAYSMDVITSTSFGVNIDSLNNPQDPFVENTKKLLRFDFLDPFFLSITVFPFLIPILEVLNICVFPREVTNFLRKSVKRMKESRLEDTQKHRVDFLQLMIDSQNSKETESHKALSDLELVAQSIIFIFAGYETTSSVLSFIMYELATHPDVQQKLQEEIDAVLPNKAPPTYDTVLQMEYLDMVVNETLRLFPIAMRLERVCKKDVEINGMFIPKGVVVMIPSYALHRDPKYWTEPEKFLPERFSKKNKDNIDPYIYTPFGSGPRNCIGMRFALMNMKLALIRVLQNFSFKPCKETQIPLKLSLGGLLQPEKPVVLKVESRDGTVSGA
Description: as §1

[3] = target: T3, CYP2D6 (Homo sapiens, UniProt P10635); assay: CYP inhibition assay, human liver microsomes, dextromethorphan O-demethylase; details: pooled human liver microsomes, read-out: CYP IC50 2D6
T3 construct: 0.2 mg/ml pooled human liver microsomes; from tissue; host or cells: pooled human liver microsomes
T3 sequence (P10635 whole entry): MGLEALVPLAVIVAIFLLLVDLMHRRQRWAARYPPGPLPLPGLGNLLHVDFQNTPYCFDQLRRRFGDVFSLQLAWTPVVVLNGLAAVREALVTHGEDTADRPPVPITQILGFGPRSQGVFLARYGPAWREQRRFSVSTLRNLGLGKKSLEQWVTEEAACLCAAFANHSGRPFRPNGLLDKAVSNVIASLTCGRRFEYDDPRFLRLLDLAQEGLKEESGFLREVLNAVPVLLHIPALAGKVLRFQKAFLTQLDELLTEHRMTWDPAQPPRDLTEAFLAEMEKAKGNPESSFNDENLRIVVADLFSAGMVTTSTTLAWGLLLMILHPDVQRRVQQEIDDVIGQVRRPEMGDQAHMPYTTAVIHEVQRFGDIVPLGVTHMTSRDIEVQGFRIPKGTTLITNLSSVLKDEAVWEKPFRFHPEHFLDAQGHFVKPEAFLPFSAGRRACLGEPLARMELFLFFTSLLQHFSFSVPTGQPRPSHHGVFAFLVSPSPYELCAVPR
Description: as §1

pIC50 [1]: < 4.30 | pIC50 [2]: < 4.30 | pIC50 [3]: 4.74
SMILES: CC1(c2cccc(-c3cncnc3)c2)COCC(N)=N1 (stereo not drawn) [Example 35, 5-Methyl-5-(3-pyrimidin-5-yl-phenyl)-5,6-dihydro-2H-[1,4]oxazin-3-ylamine]
